Tests used:
[1] = molecular target: TrkA (Homo sapiens (Human), UniProt P04629); experiment: TrkA activity, off-chip mobility shift assay (LabChip 3000); format: biochemical; settings: 55 μM ATP (ATP Km); n/d = none detected
Text: (§1) Reagents and consumables were purchased from Sigma Aldrich, Carna Biosciences, or Caliper Life Sciences. All assay reaction conditions for IC50 determinations were within the linear range with respect to time and enzyme concentration. […] The LabChip 3000 separates and measures the fluorescent signal of fluorescein labeled peptide substrate and fluorescein labeled peptide product present in each well. Results are expressed as percent conversion by measuring peak height for both the substrate and product and dividing the product peak height by the sum of peak heights for both substrate and product.

[2] = molecular target: TrkB (Homo sapiens (Human), UniProt Q16620); experiment: TrkB activity, off-chip mobility shift assay (LabChip 3000); format: biochemical; settings: 70 μM ATP (ATP Km); n/d = none detected
TrkB, sequence (Q16620 32-822): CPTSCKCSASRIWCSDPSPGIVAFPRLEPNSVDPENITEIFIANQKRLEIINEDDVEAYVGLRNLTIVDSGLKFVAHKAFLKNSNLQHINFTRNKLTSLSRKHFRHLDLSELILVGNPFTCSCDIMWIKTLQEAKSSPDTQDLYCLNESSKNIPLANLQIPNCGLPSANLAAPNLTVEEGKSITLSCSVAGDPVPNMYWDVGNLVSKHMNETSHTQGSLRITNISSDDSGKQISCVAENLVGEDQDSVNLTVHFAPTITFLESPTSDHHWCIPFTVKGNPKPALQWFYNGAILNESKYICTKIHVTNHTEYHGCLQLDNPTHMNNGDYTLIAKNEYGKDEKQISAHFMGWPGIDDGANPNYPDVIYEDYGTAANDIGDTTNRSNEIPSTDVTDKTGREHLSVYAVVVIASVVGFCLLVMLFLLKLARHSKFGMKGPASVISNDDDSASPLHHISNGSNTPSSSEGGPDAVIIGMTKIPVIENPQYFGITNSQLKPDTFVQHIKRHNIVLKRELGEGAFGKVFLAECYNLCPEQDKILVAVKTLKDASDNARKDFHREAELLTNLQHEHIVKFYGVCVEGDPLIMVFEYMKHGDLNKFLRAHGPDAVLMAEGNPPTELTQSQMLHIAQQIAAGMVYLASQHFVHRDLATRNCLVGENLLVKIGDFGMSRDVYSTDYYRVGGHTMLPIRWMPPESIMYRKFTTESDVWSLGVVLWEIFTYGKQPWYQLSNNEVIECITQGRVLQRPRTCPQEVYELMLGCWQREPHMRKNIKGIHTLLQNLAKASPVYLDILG
Text: as §1

TrkA, sequence (P04629 33-796): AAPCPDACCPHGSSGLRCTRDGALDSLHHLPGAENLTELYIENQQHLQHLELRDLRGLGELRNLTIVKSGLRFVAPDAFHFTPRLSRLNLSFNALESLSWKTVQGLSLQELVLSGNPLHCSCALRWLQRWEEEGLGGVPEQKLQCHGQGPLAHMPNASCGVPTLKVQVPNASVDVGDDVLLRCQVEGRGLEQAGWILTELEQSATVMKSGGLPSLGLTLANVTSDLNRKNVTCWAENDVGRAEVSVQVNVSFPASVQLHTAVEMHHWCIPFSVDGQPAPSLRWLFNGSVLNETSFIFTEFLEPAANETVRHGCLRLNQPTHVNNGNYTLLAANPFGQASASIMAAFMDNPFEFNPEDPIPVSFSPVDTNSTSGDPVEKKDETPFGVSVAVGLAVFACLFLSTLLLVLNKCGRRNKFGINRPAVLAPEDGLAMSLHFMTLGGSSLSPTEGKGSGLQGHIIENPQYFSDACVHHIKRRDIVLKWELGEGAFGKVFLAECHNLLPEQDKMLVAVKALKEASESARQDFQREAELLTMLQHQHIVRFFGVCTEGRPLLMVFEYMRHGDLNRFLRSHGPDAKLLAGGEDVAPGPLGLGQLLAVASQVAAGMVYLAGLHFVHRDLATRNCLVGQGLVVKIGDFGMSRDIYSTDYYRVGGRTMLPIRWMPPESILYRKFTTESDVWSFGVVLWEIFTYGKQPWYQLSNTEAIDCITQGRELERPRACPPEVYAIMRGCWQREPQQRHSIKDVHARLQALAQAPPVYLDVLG

| SMILES | IC50 [1] [µM] | IC50 [2] [µM] |
| --- | --- | --- |
| COc1ccc(COc2ccc(Cn3cnc4cc(N5CC6(CCNCC6)C5)ccc43)cc2OC)cn1 [Ex. 3-11, 1-(3-methoxy-4-((6-methoxypyridin-3-yl)methoxy)benzyl)-5-(2,7-diazaspiro[3.5]nonan-2-yl)-1H-benzo[d]imidazole] | 0.135 | 0.12 |
| COc1ccc(COc2ccc(Cn3cnc4cc(N5CCC(N)CC5)ccc43)cc2OC)cn1 [Ex. 3-12, 1-(1-(3-Methoxy-4-((6-methoxypyridin-3-yl)methoxy)benzyl)-1H-benzo[d]imidazol-5-yl)piperidin-4-amine] | 1.03 | 0.637 |
| COc1ccc(COc2ccc(Cn3cnc4cc(N5CCN(C)CC5)ccc43)cc2OC)cn1 [Ex. 3-13, 1-(3-Methoxy-4-((6-methoxypyridin-3-yl)methoxy)benzyl)-5-(4-methylpiperazin-1-yl)-1H-benzo[d]imidazole] | 1.13 | 0.443 |
| COc1ccc(COc2ccc(Cn3c(N)nc4cc(N5CCN(C)CC5=O)ccc43)cc2OC)cn1 [Ex. 3-14, 1-(2-Amino-1-(3-methoxy-4-((6-methoxypyridin-3-yl)methoxy)benzyl)-1H-benzo[d]imidazol-5-yl)-4-methylpiperazin-2-one] | 8.98 | 4.37 |
| COc1ccc(COc2ccc(Cn3c(N)nc4cc(-c5ccc(P(C)(C)=O)nc5)cnc43)cc2OC)cc1 [Ex. 3-16, (5-(2-Amino-3-(3-methoxy-4-((4-methoxybenzyl)oxy)benzyl)-3H-imidazo[4,5-b]pyridin-6-yl)pyridin-2-yl)dimethylphosphine oxide] | 0.0005 | 0.0002 |
| COc1ccc(COc2ccc(Cn3cnc4cc(N5CCC(C(C)(C)N)CC5)cnc43)cc2OC)cn1 [Ex. 3-18-1, 2-(1-(3-(3-Methoxy-4-((6-methoxypyridin-3-yl)methoxy)benzyl)-3H-imidazo[4,5-b]pyridin-6-yl)piperidin-4-yl)propan-2-amine] | 0.054 | 0.057 |
| COc1ccc(COc2ccc(Cn3cnc4cc(N5CCOCC5)cnc43)cc2OC)cn1 [Ex. 3-18-2, 4-(3-(3-Methoxy-4-((6-methoxypyridin-3-yl)methoxy)benzyl)-3H-imidazo[4,5-b]pyridin-6-yl)morpholine] | 0.09 | 0.031 |
| COc1ccc(COc2ccc(Cn3cnc4cc(N5CCN(C6CC6)CC5)cnc43)cc2OC)cn1 [Ex. 3-18-3, 6-(4-Cyclopropylpiperazin-1-yl)-3-(3-methoxy-4-((6-methoxypyridin-3-yl)methoxy)benzyl)-3H-imidazo[4,5-b]pyridine] | 0.113 | 0.052 |
| COc1ccc(COc2ccc(Cn3cnc4cc(N5CCN6CCC5CC6)cnc43)cc2OC)cn1 [Ex. 3-18-4, 4-(3-(3-Methoxy-4-((6-methoxypyridin-3-yl)methoxy)benzyl)-3H-imidazo[4,5-b]pyridin-6-yl)-1,4-diazabicyclo[3.2.2]nonane] | 0.47 | 0.349 |
| COc1ccc(COc2ccc(Cn3cnc4cc(N5CC6(CCNCC6)C5)cnc43)cc2OC)cn1 [Ex. 3-18-5, 3-(3-Methoxy-4-((6-methoxypyridin-3-yl)methoxy)benzyl)-6-(2,7-diazaspiro[3.5]nonan-2-yl)-3H-imidazo[4,5-b]pyridine] | 0.025 | 0.021 |
| COc1ccc(COc2ccc(Cn3cnc4cc(N5CCC(N)CC5)cnc43)cc2OC)cn1 [Ex. 3-18-6, 1-(3-(3-Methoxy-4-((6-methoxypyridin-3-yl)methoxy)benzyl)-3H-imidazo[4,5-b]pyridin-6-yl)piperidin-4-amine] | 0.232 | 0.133 |
| COc1ccc(COc2ccc(Cn3cnc4cc(N5CCC[C@H]5C(=O)O)cnc43)cc2OC)cn1 [Ex. 3-18-7, (S)-1-(3-(3-Methoxy-4-((6-methoxypyridin-3-yl)methoxy)benzyl)-3H-imidazo[4,5-b]pyridin-6-yl)pyrrolidine-2-carboxylic acid] | 0.008 | 0.013 |
| COc1ccc(COc2ccc(Cn3cnc4cc(-c5cnn(C6CCNCC6)c5)cnc43)cc2OC)cn1 [Ex. 3-19, 3-(3-Methoxy-4-((6-methoxypyridin-3-yl)methoxy)benzyl)-6-(1-(piperidin-4-yl)-1H-pyrazol-4-yl)-3H-imidazo[4,5-b]pyridine] | 0.001 | 0.0009 |
| COc1cc(Cn2cnc3cc(-c4cnn(C5CCNCC5)c4)cnc32)ccc1OCc1ccc(C)nc1 [Ex. 3-20, 3-(3-Methoxy-4-((6-methylpyridin-3-yl)methoxy)benzyl)-6-(1-(piperidin-4-yl)-1H-pyrazol-4-yl)-3H-imidazo[4,5-b]pyridine] | 0.0009 | 0.0006 |
| COc1ccc(COc2ccc(Cn3cnc4cc(-c5noc(C6CCNCC6)n5)cnc43)cc2OC)cn1 [Ex. 3-21, 3-(3-(3-Methoxy-4-((6-methoxypyridin-3-yl)methoxy)benzyl)-3H-imidazo[4,5-b]pyridin-6-yl)-5-(piperidin-4-yl)-1,2,4-oxadiazole] | 0.026 | 0.024 |
| COc1ccc(COc2ccc(Cn3cnc4cc(-c5noc(C6CCNCC6)n5)ccc43)cc2OC)cn1 [Ex. 3-22, 3-(1-(3-Methoxy-4-((6-methoxypyridin-3-yl)methoxy)benzyl)-1H-benzo[d]imidazol-5-yl)-5-(piperidin-4-yl)-1,2,4-oxadiazole] | 0.306 | 0.317 |
| COc1ccc(COc2ccc(Cn3cnc4cc(-c5nnc(C6CCNCC6)o5)cnc43)cc2OC)cn1 [Ex. 3-23, 2-(3-(3-Methoxy-4-((6-methoxypyridin-3-yl)methoxy)benzyl)-3H-imidazo[4,5-b]pyridin-6-yl)-5-(piperidin-4-yl)-1,3,4-oxadiazole] | 0.051 | 0.057 |
| COc1ccc(COc2ccc(Cn3cnc4cc(-n5cc(C(C)(C)N)nn5)cnc43)cc2OC)cn1 [Ex. 3-24, 2-(1-(3-(3-Methoxy-4-((6-methoxypyridin-3-yl)methoxy)benzyl)-3H-imidazo[4,5-b]pyridin-6-yl)-1H-1,2,3-triazol-4-yl)propan-2-amine] | 0.088 | 0.043 |
| COc1ccc(COc2ccc(Cn3cnc4cc(-n5cc(C6CCCNC6)nn5)cnc43)cc2OC)cn1 (stereo not shown) [Ex. 3-25, 3-(3-Methoxy-4-((6-methoxypyridin-3-yl)methoxy)benzyl)-6-(4-(piperidin-3-yl)-1H-1,2,3-triazol-1-yl)-3H-imidazo[4,5-b]pyridine] | 0.032 | 0.018 |
| COc1ccc(COc2ccc(Cn3c(N)nc4cc(N5CCN(C)CC5)ccc43)cc2OC)cn1 [Ex. 3-26, 1-(3-methoxy-4-((6-methoxypyridin-3-yl)methoxy)benzyl)-5-(4-methylpiperazin-1-yl)-1H-benzo[d]imidazol-2-amine] | 0.59 | 0.315 |
| COc1ccc(COc2cc(F)c(Cn3cnc4cc(N5CCN(C)CC5)ccc43)cc2OC)cn1 [Ex. 3-27, 1-(2-fluoro-5-methoxy-4-((6-methoxypyridin-3-yl)methoxy)benzyl)-5-(4-methylpiperazin-1-yl)-1H-benzo[d]imidazole] | 0.852 | 0.305 |
| COc1ccc(COc2ccc(Cn3cnc4cc(N5CCN(C)CC5=O)ccc43)cc2OC)cn1 [Ex. 3-29, 1-(1-(3-Methoxy-4-((6-methoxypyridin-3-yl)methoxy)benzyl)-1H-benzo[d]imidazol-5-yl)-4-methylpiperazin-2-one] | 6.02 | 4.28 |
| COc1ccc(COc2ccc(Cn3cnc4cc(C5=CC6(C)CCCN5C6)cnc43)cc2OC)cn1 (stereo not shown) [Ex. 3-30, 3-(3-Methoxy-4-((6-methoxypyridin-3-yl)methoxy)benzyl)-6-(5-methyl-1-azabicyclo[3.2.1]oct-6-en-7-yl)-3H-imidazo[4,5-b]pyridine] | 0.201 | 0.118 |
| COc1ccc(COc2ccc(Cn3cnc4cc(C5=CC6(C)CCCN5C6)ccc43)cc2OC)cn1 (stereo not shown) [Ex. 3-31, 1-(3-methoxy-4-((6-methoxypyridin-3-yl)methoxy)benzyl)-5-(5-methyl-1-azabicyclo[3.2.1]oct-6-en-7-yl)-1H-benzo[d]imidazole] | 1.48 | 0.889 |
| COc1ccc(COc2ccc(Cn3cnc4cc(C5=CC6(O)CCCN5C6)cnc43)cc2OC)cn1 (stereo not shown) [Ex. 3-32, 7-(3-(3-methoxy-4-((6-methoxypyridin-3-yl)methoxy)benzyl)-3H-imidazo[4,5-b]pyridin-6-yl)-1-azabicyclo[3.2.1]oct-6-en-5-ol] | 0.36 | 0.15 |
| COc1ccc(COc2ccc(Cn3cnc4cc(C5=CC6(O)CCCN5C6)ccc43)cc2OC)cn1 (stereo not shown) [Ex. 3-33, 7-(1-(3-Methoxy-4-((6-methoxypyridin-3-yl)methoxy)benzyl)-1H-benzo[d]imidazol-5-yl)-1-azabicyclo[3.2.1]oct-6-en-5-ol] | 1.16 | 0.372 |
| COc1ccc(COc2ccc(Cn3c(N)nc4cc(-c5cnn(C)c5)cnc43)cc2OC)cn1 [Ex. 3-35-1, 3-(3-methoxy-4-((6-methoxypyridin-3-yl)methoxy)benzyl)-6-(1-methyl-1H-pyrazol-4-yl)-3H-imidazo[4,5-b]pyridin-2-amine] | 0.0006 | 0.0003 |
| COc1cc(Cn2c(N)nc3cc(-c4cnn(C)c4)cnc32)ccc1OCc1ccc(C(F)(F)F)nc1 [Ex. 3-35-2, 3-(3-methoxy-4-((6-(trifluoromethyl)pyridin-3-yl)methoxy)benzyl)-6-(1-methyl-1H-pyrazol-4-yl)-3H-imidazo[4,5-b]pyridin-2-amine] | 0.0002 | 0.0002 |
| COc1cc(Cn2c(N)nc3cc(-c4cnn(C)c4)cnc32)ccc1OCc1ccc(C(F)(F)F)cc1 [Ex. 3-35-3, 3-(3-methoxy-4-((4-(trifluoromethyl)benzyl)oxy)benzyl)-6-(1-methyl-1H-pyrazol-4-yl)-3H-imidazo[4,5-b]pyridin-2-amine] | 0.0002 | 0.0003 |
